Entries after “also recorded” stand apart in the source; their conditions may differ. Read-outs that look alike come from different tables or passages of the source. Ends that are not written are not given here.
Experiments:
[1] = test system: MCF-7 cells; assay: Western blot analysis of EV protein content; assay type: cell-based; conditions: 48 hours treatment; for Alix expression in EVs / Vimentin expression in EVs: relative to negative controls
Method: (§1) 1.3. EV isolation and purification. EVs were isolated from cells by differential centrifugation as previously described (Ali SA. et al., 2010). Untreated cells were used as a control. Briefly, the above treated and untreated cell culture supernatants were centrifuged at 400×g for 10 minutes. The supernatants were transferred to a clear tube and centrifuged at 10,000×g for 30 minutes. The supernatants from the second spin were […] ultracentrifuged at 200,000×g for 2 hours to pellet the EVs. Finally, the EV pellets were re-suspended with PBS and stored at 4° C. until used for analysis.
(§2) 1.6. Western blot analysis. EVs were isolated from culture supernatants as described above. Protein concentrations were determined by measuring absorbance at 280 nm (Nanodrop 2000). Protein samples were denatured in SDS-PAGE sample buffer by heating at 95° C. for 15 min. Criterion TGX Precast Gels (4-20% Bio-Rad, Richmond, CA) were used to separate the proteins and blotted as previously described (Huang MB. et al 2004). Blots were incubated with the primary antibodies, anti-CD63 and anti-Alix, followed by goat or rabbit anti-Ig secondary antibodies. Specific bands were detected using ECL chemiluminescent substrate (Santa Cruz Biotechnology, Santa Cruz, CA) and visualized on the ImageQuant LAS 4000 imaging system (GE Healthcare, Piscataway, NJ 08854).
(§3) Western blot analysis was used to examine the effects of the SMRwt peptides, PEG-SMRwt-Clu peptide and SMRwt-CPP peptide, and the mortalin inhibitors MKT-077, Omeprazole, and DMA on EV protein content in MCF-7, MDA-MB-231 and K562 cells. Negative control treatments included the PEG-SMRmut-Clu peptide, […] (SEQ ID NO: 49) and the SMRmut-CPP peptide, […] (SEQ ID NO: 50). EVs were isolated from all treated and untreated cell lines screened. Western blot analyses were carried out to evaluate the expression levels of the exosomal proteins, Alix, mortalin, and vimentin in MCF-7 cells (FIG. 7, Panel A, left sub-panel), MDA-MB-231 cells (FIG. 7, Panel A, middle sub-panel), and K562 cells (FIG. 7, Panel A, right sub-panel).

[2] = test system: MDA-MB-231 cells; assay: Western blot analysis of EV protein content; assay type: cell-based; conditions: 48 hours treatment
Method: as §1, §2, §3

[3] = test system: K562 cells; assay: Western blot analysis of EV protein content; assay type: cell-based; conditions: 48 hours treatment
Method: as §1, §2, §3

[4] = test system: MCF-7 cells; assay: Acetylcholinesterase (AchE) assay of exosome/EV release; assay type: cell-based; conditions: for average AChE concentrations throughout days 1 to day 5 / AchE concentrations on day 3 / AchE concentrations, initial increase: MCF-7 cells; for average AChE concentrations throughout days 1 to day 5: five-day treatment at 37° C.; for AchE concentrations on day 3 / AchE concentrations, initial increase: five-day treatment; for AchE concentrations on day 3: mock 69.15; for AchE concentrations, initial increase: initial increase on days 1 and/or 2, mock 155.13
Method: as §1
(§4) 1.4. Exosome characterization by acetylcholinesterase (AchE) assay. Purified EVs were quantitated by measurement of AchE as described (Ellman et al., 1961). Briefly, a 100 mM dithibionitrobenzoic (DTNB) solution was prepared for use as a stock color indicator, and a 28.9 mg/mL acetylthiocholine iodide in PBS solution was prepared as a stock substrate. The stock substrate stock can be stored at −20° C. up to one month, while the color indicator can be stored at 4° C. for two weeks. A working solution was prepared by mixing 10 mL of PBS with 200 μL of Substrate and 500 μl of DTNB. 50 μL of each exosome sample was transferred to 96 well microtitre plates, and a standard curve was prepared using AchE from 0.98 mU/mL to 2000 mU/mL. After 50 μL of standards were added into separate wells, 200 μL of the working solution was added to all wells. After 20 min incubation, AchE activity was measured at 450 nm using a SpectroMax M5 fluorimeter.

[5] = test system: MDA-MB-231 cells; assay: as above; assay type: cell-based; conditions: for average AChE concentration levels throughout day 1 to 5 / AChE on day 1 (initial increase): MDA-MB-231 cells; for average AChE concentration levels throughout day 1 to 5: five-day treatment at 37° C.; for AChE on day 1 (initial increase): five-day treatment, mock 146.52
Method: as §1, §4

[6] = test system: MCF-7, MDA-MB-231 and K562 cells; assay: Exosome/EV release, overall statements across cell lines (AchE, NanoSight, Western blot); assay type: cell-based; conditions: for exosome/EV release (number of EVs released): MCF-7, MDA-MB-231 and K562 cells, five days at 37° C., AchE assay
Method: Acetylcholinesterase (AchE) assays, NanoSight analysis and Western blot analysis were performed to characterize EVs released from MCF-7 and MDA-MB-231 cells treated for 48 hr with the various peptides.
To further examine the underlying mechanism for blocking exosome release, a study was extended to examine the effects of the SMRwt peptides, PEG-SMRwt-Clu peptide and SMRwt-CPP peptide, and the mortalin inhibitors MKT-077, Omeprazole, and DMA on exosome release. In particular, acetylcholinesterase (AchE) assays, NanoSight analysis and Western blot analysis were performed to characterize EVs released from MCF-7, MDA-MB-231 and K562 cells. Panels A, B and C depict the relative numbers of EVs released as a function of time as measured by an acetylcholinesterase (AchE) assay in MCF-7 cells (FIG. 6, Panel A); MDA-MB-231 cells (FIG. 6, Panel B); and K562 cells (FIG. 6, Panel C).

[7] = test system: K562, MCF-7 and MDA-MB-231 cultures; assay: Complement-mediated cytotoxicity, overall statements across cell lines; assay type: cell-based; conditions: peptide, then anti-CXCR4 antibody and NHS
Method: (§5) Therefore, it was of interest to see whether SMR peptide driven mortalin sequestration and functional disruption increases cell sensitivity to complement-induced cell death. Accordingly, MCF-7, MDA-MB-231, and K562 cells were treated with 280 nM PEG-SMRwt-Clu peptide or 560 nM SMRwt-CPP peptide alone for 60 min at 37° C., followed by treatment with 1 μg/mL anti-CXCR4 antibody and 50 μL normal human serum (NHS; as a source of complement) or normal heat-inactivated (human) serum (NIS) for an additional 60 min at 37° C. (FIG. 8). PEG-SMRmut-Clu peptide and SMRmut-CPP peptide were used as negative controls. The percentage of stained (dead) cells was determined by trypan blue exclusion and is representative of 3 independent experiments.
(§6) To further validate the ability of mortalin neutralization to render or enhance complement-mediated cytotoxicity, MCF-7, MDA-MB-231 and K562 cells were transfected with vectors expressing mortalin siRNAs or negative control siRNAs, incubated for 72 hours at 37° C., treated with anti-CXCR4 antibody for 30 minutes at 4° C. followed by incubation with either NHS or NIS for 60 minutes at 37° C.

[8] = test system: MCF-7, MDA-MB-231 and K562 cells; conditions: previously shown (Huang et al., Oncotarget (2017)); cited from earlier work
[9] = test system: MCF-7 cells; assay: Complement-mediated cytotoxicity (anti-CXCR4 antibody plus NHS or NIS, trypan blue exclusion); assay type: cell-based; conditions: 280 nM PEG-SMRwt-Clu or 560 nM SMRwt-CPP
Method: as §5, §6

[10] = test system: MDA-MB-231 cells; assay: as above; assay type: cell-based; conditions: 280 nM PEG-SMRwt-Clu or 560 nM SMRwt-CPP
Method: as §5, §6

[11] = test system: K562 cells; assay: as above; assay type: cell-based; conditions: 280 nM PEG-SMRwt-Clu or 560 nM SMRwt-CPP
Method: as §5, §6

[12] = test system: MCF-7 cells; assay: NanoSight nanoparticle tracking analysis (NTA) of released EVs; assay type: cell-based; conditions: MCF-7 cells treated for 48 hr; untreated control 5.16×10^9 particles/ml
Method: as §1
(§7) 1.5. EV nanoparticle tracking analysis (NTA). Analysis of absolute size distribution of EVs was performed using NanoSight LM10 with NTA2.3 (NanoSight Ltd., Minton Park, UK). EV particles were automatically tracked and sized based on Brownian motion and the diffusion coefficient. After isolation, the untreated and treated EVs were re-suspended in 0.5 mL of PBS. Control medium and filtered PBS were used as controls in this technique. The NTA measurement conditions were: temperature=21.0+/−0.5° C.; viscosity=0.99+/−0.01 cP; frames per second=25; measurement time=30 s. The detection threshold was similar in all samples. […]

[13] = test system: MDA-MB-231 cells; assay: as above; assay type: cell-based; conditions: MDA-MB-231 cells treated for 48 hr; control media 4.7×10^9 particles/ml
Method: as §1, §7

[14] = then anti-CXCR4 antibody and NHS

Compound	Mortalin expression in EVs [1]	Alix expression in EVs [1]	Vimentin expression in EVs [1]	Vimentin expression in EVs [2]	Alix expression in EVs [3]	Mortalin expression in EVs [3]	Vimentin expression in EVs [3]	average AChE concentrations throughout days 1 to day 5 [4] [mU/mL]	average AChE concentration levels throughout day 1 to 5 [5] [mU/mL]	exosome/EV release (number of EVs released) [6]	Mortalin expression in EVs [2]	also measured
CN(C)c1nc(N)c(C(=O)NC(=N)N)nc1Cl [DMA, 5-(N,N-Dimethyl)amiloride]	no significant changes	not accompanied by significant reductions	significantly decreased	significantly decreased	significantly decreased	significantly decreased	significantly increased	26	37	reduced the number of EVs released; also recorded: blocked exosome release	–	–
CCn1c(=Cc2cccc[n+]2CC)sc(=C2Sc3ccccc3N2C)c1=O.[Cl-] [MKT-077, 1-Ethyl-2-[[3-ethyl-5-(3-methyl-2(3H)-benzothiazolylidene)-4-oxo-2-thiazolidinylidene]methyl]-pyridinium chloride]	significantly decreased	significantly decreased	significantly decreased	no significant change	significantly decreased	significantly decreased	significantly increased	22	29	reduced the number of EVs released; also recorded: blocked exosome release	No significant change	–
COc1ccc2[nH]c([S+]([O-])Cc3ncc(C)c(OC)c3C)nc2c1 (stereo not drawn) [Omeprazole, 5-Methoxy-2-[[(4-methoxy-3,5-dimethyl-2-pyridinyl)methyl]sulfinyl]-1H-benzimidazole]	no significant changes	not accompanied by significant reductions	significantly decreased	no significant change	significantly decreased	significantly decreased	significantly increased	26	25	reduced the number of EVs released; also recorded: blocked exosome release	No significant change	–
AGFPVAAAGFPVGRKKRRQRRRPPQ (SEQ ID NO: 50) (Synthetic SMRmut-CPP)	–	–	–	–	–	–	–	–	–	–	–	AchE concentrations on day 3 [4]: 66.05 mU/mL; AchE concentrations, initial increase [4]: 150.06 mU/mL; AChE on day 1 (initial increase) [5]: 141.47 mU/mL
NXNAGFPVAAAGFPVHPLSKHPYWSQP (SEQ ID NO: 49) [PEG-SMRmut-Clu]	–	–	–	–	–	–	–	–	–	–	–	AchE concentrations on day 3 [4]: 69.0 mU/mL; AchE concentrations, initial increase [4]: 151.5 mU/mL; AChE on day 1 (initial increase) [5]: 146.79 mU/mL
VGFPVAAVGFPVGRKKRRQRRRPPQ [SMRwt-CPP]	–	–	–	–	–	–	–	–	–	–	–	complement-mediated cytotoxicity / cell death in the presence of NHS [7]: induce complement-mediated cytotoxicity
VGFPVAAVGFPVHPLSKHPYWSQP (SEQ ID NO: 47) [PEG-SMRwt-Clu]	significantly decreased	significantly decreased	significantly decreased	significantly decreased	significantly decreased	significantly decreased	–	31	42	reduced the number of EVs released; also recorded: blocked exosome release	significantly decreased	exosome release [8]: block exosome release; Alix expression in EVs [2]: significantly decreased; AchE activity in EVs ([4]; MCF-7 cells treated for 48 hr, control EVs 113.49 mU/mL): 41.95 mU/mL; AchE activity in EVs ([5]; MDA-MB-231 cells treated for 48 hr, control EVs 118.48 mU/mL): 66.77 mU/mL; complement-mediated cytotoxicity / cell death in the presence of NHS [7]: induce complement-mediated cytotoxicity; cell death under complement-negative conditions ([9]; 60 min): 2.1%; cell death under complement-positive conditions [9, 14]: 26%; cell death under complement-negative conditions ([10]; 60 min): 3.6%; cell death under complement-positive conditions [10, 14]: 76%; cell death under complement-negative conditions ([11]; 60 min): 4.3%; cell death under complement-positive conditions [11, 14]: 55%; number of particles (NTA) [12]: 3.28×10^8 particles/mL; number of particles (NTA) [13]: 6.8×10^8 particles/mL; exosome release ([6]; MCF-7 and MDA-MB-231 cells treated for 48 hr): blocks exosome release
